Results published in ChEMBL document CHEMBL1201862, “PubChem BioAssay data set” (2004).
Activity calls are given as the source filed them.

What was measured:
[1] = target: T1, Histone-lysine N-methyltransferase NSD2 (Homo sapiens, UniProt O96028); format: biochemical
T1 sequence (O96028 whole entry): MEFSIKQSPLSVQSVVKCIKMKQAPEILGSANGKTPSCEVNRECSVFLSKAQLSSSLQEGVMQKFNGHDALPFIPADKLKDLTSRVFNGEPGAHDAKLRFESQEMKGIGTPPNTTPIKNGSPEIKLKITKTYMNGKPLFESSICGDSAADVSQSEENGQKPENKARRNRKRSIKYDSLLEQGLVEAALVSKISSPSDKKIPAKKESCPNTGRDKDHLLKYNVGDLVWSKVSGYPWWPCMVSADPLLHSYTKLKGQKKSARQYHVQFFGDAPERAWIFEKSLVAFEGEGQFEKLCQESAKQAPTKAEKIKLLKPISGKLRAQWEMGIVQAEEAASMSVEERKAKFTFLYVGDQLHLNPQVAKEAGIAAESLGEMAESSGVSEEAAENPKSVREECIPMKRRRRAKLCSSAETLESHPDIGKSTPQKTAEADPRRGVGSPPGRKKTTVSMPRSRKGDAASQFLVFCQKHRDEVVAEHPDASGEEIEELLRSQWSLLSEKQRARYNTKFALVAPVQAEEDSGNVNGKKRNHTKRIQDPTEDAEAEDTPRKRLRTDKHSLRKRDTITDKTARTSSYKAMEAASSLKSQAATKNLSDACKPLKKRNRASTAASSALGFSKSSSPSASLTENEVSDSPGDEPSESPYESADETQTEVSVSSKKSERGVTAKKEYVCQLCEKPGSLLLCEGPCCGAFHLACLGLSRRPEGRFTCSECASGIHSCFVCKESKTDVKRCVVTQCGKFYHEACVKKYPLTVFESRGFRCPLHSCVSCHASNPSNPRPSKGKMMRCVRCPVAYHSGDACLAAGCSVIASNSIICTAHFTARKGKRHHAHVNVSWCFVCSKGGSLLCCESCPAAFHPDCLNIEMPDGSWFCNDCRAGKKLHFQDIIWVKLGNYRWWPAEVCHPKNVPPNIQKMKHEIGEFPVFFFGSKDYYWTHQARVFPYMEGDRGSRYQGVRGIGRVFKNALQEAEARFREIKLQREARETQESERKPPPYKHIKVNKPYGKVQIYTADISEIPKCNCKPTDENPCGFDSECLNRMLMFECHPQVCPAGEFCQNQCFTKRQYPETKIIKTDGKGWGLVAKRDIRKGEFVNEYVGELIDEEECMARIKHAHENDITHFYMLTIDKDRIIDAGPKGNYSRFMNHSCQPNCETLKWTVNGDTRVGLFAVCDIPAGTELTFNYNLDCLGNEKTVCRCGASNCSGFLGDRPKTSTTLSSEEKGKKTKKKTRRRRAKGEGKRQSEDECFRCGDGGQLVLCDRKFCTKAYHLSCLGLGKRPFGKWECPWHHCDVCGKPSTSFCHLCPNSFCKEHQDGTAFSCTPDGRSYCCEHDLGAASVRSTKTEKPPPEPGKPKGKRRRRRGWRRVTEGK

[2] = target: Ribosomal protein S6 kinase alpha-3 (Homo sapiens, UniProt P51812); format: functional;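 further: measured within a kinome-wide profiling panel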
[3] = target: Proto-oncogene tyrosine-protein kinase receptor Ret (Homo sapiens, UniProt P07949); format: functional;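 further: measured within a kinome-wide profiling panel, RET as the panel member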
[4] = target: Platelet-derived growth factor receptor beta (Homo sapiens, UniProt P09619); format: functional;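 further: value comes from a kinome panel, with PDGFRB tested as one panel member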
[5] = target: T2, Receptor-type tyrosine-protein kinase FLT3 (Homo sapiens, UniProt P36888); format: functional;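 further: FLT3 was tested as one member of a kinome-wide kinase panel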
T2 sequence (P36888 whole entry): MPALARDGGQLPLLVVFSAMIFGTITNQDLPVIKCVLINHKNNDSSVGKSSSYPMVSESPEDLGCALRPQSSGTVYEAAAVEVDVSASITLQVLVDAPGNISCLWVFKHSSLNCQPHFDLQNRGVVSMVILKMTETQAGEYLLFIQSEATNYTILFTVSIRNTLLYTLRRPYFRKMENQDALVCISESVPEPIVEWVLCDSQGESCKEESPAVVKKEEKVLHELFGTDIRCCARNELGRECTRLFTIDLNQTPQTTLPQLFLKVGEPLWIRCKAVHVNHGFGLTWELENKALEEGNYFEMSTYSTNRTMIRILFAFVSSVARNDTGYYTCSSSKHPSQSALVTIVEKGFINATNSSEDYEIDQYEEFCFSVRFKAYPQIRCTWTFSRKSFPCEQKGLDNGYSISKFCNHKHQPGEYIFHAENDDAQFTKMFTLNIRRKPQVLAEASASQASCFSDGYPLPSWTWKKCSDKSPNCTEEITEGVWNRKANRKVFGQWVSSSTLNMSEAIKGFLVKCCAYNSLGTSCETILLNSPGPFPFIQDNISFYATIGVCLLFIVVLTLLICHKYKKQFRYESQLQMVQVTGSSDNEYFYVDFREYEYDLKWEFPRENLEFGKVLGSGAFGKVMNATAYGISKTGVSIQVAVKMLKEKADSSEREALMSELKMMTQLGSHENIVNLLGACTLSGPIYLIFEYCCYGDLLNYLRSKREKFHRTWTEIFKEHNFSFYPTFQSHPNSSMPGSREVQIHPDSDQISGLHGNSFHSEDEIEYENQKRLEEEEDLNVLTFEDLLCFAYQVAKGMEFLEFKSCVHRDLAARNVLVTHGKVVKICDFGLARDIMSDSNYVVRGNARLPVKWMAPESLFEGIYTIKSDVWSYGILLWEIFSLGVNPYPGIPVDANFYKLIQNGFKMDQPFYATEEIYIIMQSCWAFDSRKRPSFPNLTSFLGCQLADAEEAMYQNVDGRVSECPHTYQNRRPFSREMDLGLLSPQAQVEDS

[6] = target: G protein-coupled receptor kinase 5 (Homo sapiens, UniProt P34947); assay: Navigating the Kinome. Panel member name: GPRK5; format: functional
Nonstructural protein 1 = Nonstructural protein 1 (Influenza A virus, UniProt Q194T2); format: functional, Influenza A virus (A/California/07/2009(H1N1))
Vero = assay: viability of Vero cells under compound – cytotoxicity control for flavivirus capping enzyme inhibitors (AID 588742); format: functional; details: Chlorocebus sabaeus
INS1 = assay: INS-1E survival protection against cytokine death – cell-based, luminescence, retest, dose response (AID 449756); format: functional; details: Rattus norvegicus;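 further: cell death triggered by IL-1 beta plus TNF-alpha plus IFN-gamma mixture; protective hits raise ATP signal compared with cytokine alone wells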

Nonstructural protein 1, sequence (Q194T2 whole entry): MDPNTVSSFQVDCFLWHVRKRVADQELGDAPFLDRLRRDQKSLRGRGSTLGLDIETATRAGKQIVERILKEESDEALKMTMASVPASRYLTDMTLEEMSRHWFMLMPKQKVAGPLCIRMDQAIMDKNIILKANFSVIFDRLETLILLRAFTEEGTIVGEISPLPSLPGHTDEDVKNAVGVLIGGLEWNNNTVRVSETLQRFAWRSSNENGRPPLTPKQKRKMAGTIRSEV
Platelet-derived growth factor receptor beta, sequence (P09619 whole entry): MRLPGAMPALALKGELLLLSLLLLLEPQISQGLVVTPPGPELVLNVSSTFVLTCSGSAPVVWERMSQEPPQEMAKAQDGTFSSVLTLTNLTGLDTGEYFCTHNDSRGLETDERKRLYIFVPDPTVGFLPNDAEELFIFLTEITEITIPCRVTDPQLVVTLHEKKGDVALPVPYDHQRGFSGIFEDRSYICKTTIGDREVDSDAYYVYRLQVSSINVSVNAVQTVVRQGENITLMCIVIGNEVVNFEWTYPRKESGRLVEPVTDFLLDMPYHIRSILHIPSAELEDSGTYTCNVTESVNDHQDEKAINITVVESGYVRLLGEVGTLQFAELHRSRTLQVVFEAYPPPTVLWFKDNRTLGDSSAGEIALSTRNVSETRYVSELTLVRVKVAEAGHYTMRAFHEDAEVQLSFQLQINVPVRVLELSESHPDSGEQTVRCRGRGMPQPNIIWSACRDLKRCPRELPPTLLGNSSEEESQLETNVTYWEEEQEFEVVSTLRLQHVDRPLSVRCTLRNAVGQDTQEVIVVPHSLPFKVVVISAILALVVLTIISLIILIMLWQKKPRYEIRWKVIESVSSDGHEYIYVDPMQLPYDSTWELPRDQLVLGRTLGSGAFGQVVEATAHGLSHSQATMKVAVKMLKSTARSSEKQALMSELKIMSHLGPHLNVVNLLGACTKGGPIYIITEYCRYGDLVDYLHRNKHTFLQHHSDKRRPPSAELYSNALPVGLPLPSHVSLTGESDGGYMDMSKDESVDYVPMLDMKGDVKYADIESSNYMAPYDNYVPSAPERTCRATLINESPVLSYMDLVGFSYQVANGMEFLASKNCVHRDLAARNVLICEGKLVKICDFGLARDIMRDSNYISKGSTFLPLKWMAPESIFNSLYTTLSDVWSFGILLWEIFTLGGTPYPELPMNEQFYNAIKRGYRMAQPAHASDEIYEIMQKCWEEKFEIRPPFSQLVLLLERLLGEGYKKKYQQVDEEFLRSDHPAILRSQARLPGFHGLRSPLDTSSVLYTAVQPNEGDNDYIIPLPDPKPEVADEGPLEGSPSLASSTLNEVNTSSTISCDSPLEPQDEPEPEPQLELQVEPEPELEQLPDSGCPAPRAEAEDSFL
G protein-coupled receptor kinase 5, sequence (P34947 whole entry): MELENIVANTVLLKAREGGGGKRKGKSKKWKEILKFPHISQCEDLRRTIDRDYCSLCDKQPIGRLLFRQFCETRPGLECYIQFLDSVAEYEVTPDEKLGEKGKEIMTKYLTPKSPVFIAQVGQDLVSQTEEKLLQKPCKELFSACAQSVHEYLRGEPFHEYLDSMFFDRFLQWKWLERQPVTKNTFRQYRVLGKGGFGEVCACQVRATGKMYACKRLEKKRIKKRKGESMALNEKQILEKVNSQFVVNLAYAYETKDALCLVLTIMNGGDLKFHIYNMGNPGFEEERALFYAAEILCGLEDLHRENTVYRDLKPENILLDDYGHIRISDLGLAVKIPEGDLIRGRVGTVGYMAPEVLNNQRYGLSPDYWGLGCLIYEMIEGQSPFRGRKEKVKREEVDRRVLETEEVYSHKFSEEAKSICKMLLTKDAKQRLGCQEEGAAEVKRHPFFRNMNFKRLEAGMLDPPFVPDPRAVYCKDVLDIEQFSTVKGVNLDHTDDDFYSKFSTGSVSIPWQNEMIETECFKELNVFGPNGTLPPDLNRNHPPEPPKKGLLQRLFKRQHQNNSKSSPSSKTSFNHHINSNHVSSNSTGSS
Proto-oncogene tyrosine-protein kinase receptor Ret, sequence (P07949 whole entry): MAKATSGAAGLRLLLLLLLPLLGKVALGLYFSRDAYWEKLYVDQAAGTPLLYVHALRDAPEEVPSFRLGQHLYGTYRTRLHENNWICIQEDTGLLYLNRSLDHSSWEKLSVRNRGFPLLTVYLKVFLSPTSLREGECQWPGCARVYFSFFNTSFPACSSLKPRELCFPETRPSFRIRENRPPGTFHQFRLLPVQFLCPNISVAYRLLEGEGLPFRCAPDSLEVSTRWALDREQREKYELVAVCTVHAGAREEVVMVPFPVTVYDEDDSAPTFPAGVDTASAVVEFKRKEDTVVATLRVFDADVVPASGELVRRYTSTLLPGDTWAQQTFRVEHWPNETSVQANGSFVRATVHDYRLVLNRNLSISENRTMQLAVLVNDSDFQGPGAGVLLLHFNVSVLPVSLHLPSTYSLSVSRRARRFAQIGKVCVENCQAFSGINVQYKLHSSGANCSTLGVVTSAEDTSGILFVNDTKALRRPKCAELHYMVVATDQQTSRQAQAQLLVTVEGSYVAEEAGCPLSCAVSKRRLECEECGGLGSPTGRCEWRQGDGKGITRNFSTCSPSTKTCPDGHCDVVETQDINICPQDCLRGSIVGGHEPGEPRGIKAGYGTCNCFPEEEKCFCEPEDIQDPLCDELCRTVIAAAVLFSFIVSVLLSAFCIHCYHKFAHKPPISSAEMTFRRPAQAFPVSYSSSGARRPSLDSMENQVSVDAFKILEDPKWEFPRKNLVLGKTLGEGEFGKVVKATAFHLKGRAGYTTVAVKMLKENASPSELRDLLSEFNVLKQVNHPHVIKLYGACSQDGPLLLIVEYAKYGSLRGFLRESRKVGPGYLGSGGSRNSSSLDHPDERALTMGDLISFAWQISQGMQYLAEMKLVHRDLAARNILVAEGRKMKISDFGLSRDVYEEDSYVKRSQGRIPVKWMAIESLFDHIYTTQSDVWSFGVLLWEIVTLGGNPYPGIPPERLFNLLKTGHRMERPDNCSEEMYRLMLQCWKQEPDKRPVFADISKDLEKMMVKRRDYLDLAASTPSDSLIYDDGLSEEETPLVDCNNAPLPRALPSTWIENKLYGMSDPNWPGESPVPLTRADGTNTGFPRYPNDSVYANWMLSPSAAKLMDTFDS
Ribosomal protein S6 kinase alpha-3, sequence (P51812 whole entry): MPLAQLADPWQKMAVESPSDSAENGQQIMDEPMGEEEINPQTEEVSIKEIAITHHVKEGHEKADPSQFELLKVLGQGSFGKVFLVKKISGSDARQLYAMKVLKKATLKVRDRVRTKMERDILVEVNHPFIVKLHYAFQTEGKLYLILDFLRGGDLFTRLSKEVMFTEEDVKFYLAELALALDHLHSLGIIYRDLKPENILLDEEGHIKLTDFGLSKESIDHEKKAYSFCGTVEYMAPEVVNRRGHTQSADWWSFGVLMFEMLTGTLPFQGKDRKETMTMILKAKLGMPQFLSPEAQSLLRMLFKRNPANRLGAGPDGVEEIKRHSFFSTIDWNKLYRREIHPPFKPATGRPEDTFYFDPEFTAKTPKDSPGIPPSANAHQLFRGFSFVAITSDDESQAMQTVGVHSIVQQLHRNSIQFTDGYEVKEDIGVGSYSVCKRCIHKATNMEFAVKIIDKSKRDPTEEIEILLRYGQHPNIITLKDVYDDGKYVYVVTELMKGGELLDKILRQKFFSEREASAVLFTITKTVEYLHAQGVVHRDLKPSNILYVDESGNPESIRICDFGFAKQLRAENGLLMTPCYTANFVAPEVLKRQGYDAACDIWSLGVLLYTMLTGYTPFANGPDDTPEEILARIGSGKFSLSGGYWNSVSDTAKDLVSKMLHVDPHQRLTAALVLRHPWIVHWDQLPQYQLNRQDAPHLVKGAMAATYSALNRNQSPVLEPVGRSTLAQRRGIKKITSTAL

O=C(Cc1ccccc1)NC1(O)C(=O)c2ccccc2C1=O
AC50 [1]: 7.11 µM (active)

O=c1[nH]c2cc(Br)cnc2[nH]1
Ki [2]: 31.6 µM (active)
Ki [3]: 31.6 µM (active)

O=C(Nc1cccc(C(F)(F)F)n1)Nc1ccnc2cc(OC(F)F)ccc12
Ki [2]: > 3.98 µM (inactive)
Ki [3]: > 3.16 µM (inactive)
Ki [4]: > 2 µM (inactive)
Ki [5]: > 3.16 µM (inactive)
Ki [6]: > 3.98 µM (inactive)

O=C(Nc1cccc(C(F)(F)F)n1)Nc1ccnc2cc(Cl)ccc12
Ki [4]: > 2 µM (inactive)
Ki [5]: > 3.16 µM (inactive)
Ki [6]: > 3.98 µM (inactive)

CCC1CC(NS(=O)(=O)C2CC2)CC1c1ncc2cnc3[nH]ccc3n12 (centres undefined)
Ki [5]: > 3.16 µM (inactive)

Cc1cc(C)c(S(=O)(=O)/N=C2\C=C(Nc3ccc(C(=O)O)cc3)C(=O)c3ccccc32)c(C)c1
IC50 (Nonstructural protein 1): 20.8 µM (active)
CC50 (Vero): 9.71 µM (active)
AC50 (INS1): 2.51 µM (active)

COC(=O)c1nc(-c2ccc3c(n2)C(=O)C(=N)C(OC)=C3O)c(N)c(-c2ccc(OC)c(OC)c2O)c1C
IC50 (Nonstructural protein 1): > 100 µM (active)
CC50 (Vero): 0.18 µM (active)
AC50 (INS1): 1.56 µM (active)
AC50 [1]: > 20 µM (inactive)
